Measured values reported in ChEMBL document CHEMBL4196052, “Rational modifications on a benzylidene-acrylohydrazide antiviral scaffold, synthesis and evaluation of bioactivity against Chikungunya virus” (Eur J Med Chem, 2018).

Assays:
Chikungunya virus [1] = test: Antiviral activity against Chikungunya virus Indian Ocean strain 899 infected in African green monkey Vero cells assessed as inhibition of viral-induced cytopathic effect measured on day 5 post infection by MTS/PMS assay; assay type: functional, organism-based, Indian Ocean 899; details: for EC50 / EC90: Chikungunya virus, Indian Ocean 899, Vero, 120 h
Chikungunya virus [2] = test: Antiviral activity against Chikungunya virus Indian Ocean strain 899 infected in African green monkey Vero cells assessed as inhibition of viral-induced cytopathic effect by measuring concentration required for maximum activity measured on day 5 post infection by MTS/PMS assay; assay type: functional, Indian Ocean 899
[3] = Cytotoxicity against African green monkey Vero cells by MTS/PMS assay; assay type: cell-based; details: chlorocebus sabaeus
[4] = Selectivity index, ratio of CC50 for African green monkey Vero cells to EC50 for Chikungunya virus Indian Ocean strain 899 infected in African green monkey Vero cells; assay type: toxicity; details: read-out: Ratio CC50/EC50

SMILES | Imax (Chikungunya virus [1]) | EC50 (Chikungunya virus [1]) | EC90 (Chikungunya virus [1]) | Activity (Chikungunya virus [2]) | CC50 [3] | selectivity ratio [4]
O=C(N/N=C/c1ccc(O)cc1)c1cc2ccccc2[nH]1 | 51% | 348 µM | > 358 µM | 358 µM | – | –
O=C(N/N=C/c1ccc(O)cc1)c1ccc2ccccc2n1 | <1% | > 343 µM | > 343 µM | 343 µM | – | –
Cc1ccc(/C=N/NC(=O)CC(=O)c2ccc(C(C)(C)C)cc2)cc1 | 13% | > 74 µM | > 74 µM | 74 µM | 84 µM | –
CCOc1ccc(/C=N/NC(=O)c2ccc3ccccc3n2)cc1OCC | 8% | > 275 µM | > 275 µM | 275 µM | – | –
Cc1ccc(/C=N/NC(=O)/C=C/c2ccc(C(F)(F)F)cc2)cc1 | 61% | 96.3 µM | > 150 µM | 99 µM | 203 µM | 2.1
C/C(=N\NC(=O)c1cc2ccccc2[nH]1)c1ccc(C2CCCCC2)cc1 | 41% | > 209 µM | > 209 µM | 209 µM | – | –
CCOc1ccc(C(=O)NNC(=O)/C=C/c2ccc(C(C)(C)C)cc2)cc1OCC | 11% | > 244 µM | > 244 µM | 6.3 µM | – | –
O=C(N/N=C/c1ccc(O)cc1)c1nc2ccccc2[nH]1 | 33% | > 357 µM | > 357 µM | 357 µM | – | –
Cc1ccc(NC(=O)N/C=C/c2ccc(C(C)(C)C)cc2)cc1 | 16% | > 61 µM | > 61 µM | 61 µM | – | –
Cc1ccc(-c2nnc(CCc3ccc(C(C)(C)C)cc3)o2)cc1 | 100% | 17.2 µM | 21.7 µM | 26 µM | – | –
O=C(N/N=C/c1ccc(O)cc1)c1cnc2ccccc2c1 | <1% | > 343 µM | > 343 µM | 343 µM | – | –
Cc1ccc(-c2nnc(CCc3ccccc3)o2)cc1 | 2% | > 378 µM | > 378 µM | 1 µM | – | –
Cc1ccc(/C=N/NC(=O)c2nc3ccccc3[nH]2)cc1 | 14% | > 120 µM | > 120 µM | 120 µM | – | –
Cc1ccc(NC(=O)N/C=C/c2ccccc2)cc1 | 21% | > 396 µM | > 396 µM | 396 µM | – | –
CCOc1ccc(/C=N/NC(=O)c2cc3ccccc3[nH]2)cc1OCC | 50% | > 213 µM | > 213 µM | 213 µM | – | –
Cc1ccc(/C=N/NC(=O)/C=C/c2ccc(-c3ccccc3)cc2)cc1 | 78% | 230 µM | > 294 µM | 294 µM | > 294 µM | > 1.3
CC(C)(C)c1ccc(CCC(=O)Nc2nc3ccccc3[nH]2)cc1 | 41% | > 311 µM | > 311 µM | 311 µM | – | –
CCOc1ccc(/C=N/NC(=O)c2nc3ccccc3[nH]2)cc1OCC | 6% | > 284 µM | > 284 µM | 284 µM | – | –
C/C(=N\NC(=O)c1ccc2ccccc2n1)c1ccc(C2CCCCC2)cc1 | 13% | > 269 µM | > 269 µM | 269 µM | – | –
COc1ccc(CNC(=O)N/C=C/c2ccc(C(C)(C)C)cc2)cc1OC | 100% | 11.6 µM | 14.8 µM | 17 µM | – | –
COc1ccc(/C=C/C(=O)N/N=C(\C)c2ccc(C3CCCCC3)cc2)cc1 | 9% | > 87.7 µM | > 87.7 µM | 66 µM | – | –
CC(C)(C)c1ccc(/C=C/NC(=O)NCc2ccccc2)cc1 | 8% | > 107 µM | > 107 µM | 107 µM | – | –
C/C(=N\NC(=O)c1ccc2ccccc2c1)c1ccc(C2CCCCC2)cc1 | 14% | > 270 µM | > 270 µM | 270 µM | – | –
CCN(CC)CCCC(C)Nc1ccnc2cc(Cl)ccc12 (stereo not drawn) [CHLOROQUINE] | – | – | 21 µM | – | – | –
CCOc1ccc(/C=N/NC(=O)/C=C/c2ccc(OC)cc2)cc1OCC | 8% | > 271 µM | > 271 µM | 45 µM | – | –
O=C(N/N=C/c1ccc(O)cc1)c1ccc2ccccc2c1 | 2% | > 344 µM | > 344 µM | 344 µM | – | –
CCOc1ccc(/C=N/NC(=O)/C=C/c2ccc(C(C)(C)C)cc2)cc1OCC | 100% | – | 11 µM | 12.5 µM | – | –
CC(C)(C)c1ccc(/C=C/NC(=O)Nc2ccc(O)cc2)cc1 | 100% | 9.1 µM | 11.9 µM | 4.1 µM | – | –
